Results on 18 molecules are retold here after ChEMBL document CHEMBL1909046, “DrugMatrix in vitro pharmacology data”.

SMILES strings stand for the structures.

A short description of experiment [1]: DRUGMATRIX: ATPase, Na+/K+ enzyme inhibition (substrate: ATP). The format is tissue-based, Sus scrofa, Heart. The conditions noted are these: Not Active = under 50% inhibition at 10 µM.
Experiment [2] can be described thus: DRUGMATRIX: Calcium Channel Type L, Dihydropyridine radioligand binding (ligand: [3H] Nitrendipine). The format is cell membranes, Rattus norvegicus, Wistar, Cerebral cortex, Membrane. The conditions noted are these: Not Active = under 50% inhibition at 10 µM.
The target of another experiment is T1, Endothelin-1 receptor (Homo sapiens, UniProt P25101). Also: in other assays of this panel Not Active means under 50% inhibition at 10 µM.
T1 sequence (P25101 whole entry): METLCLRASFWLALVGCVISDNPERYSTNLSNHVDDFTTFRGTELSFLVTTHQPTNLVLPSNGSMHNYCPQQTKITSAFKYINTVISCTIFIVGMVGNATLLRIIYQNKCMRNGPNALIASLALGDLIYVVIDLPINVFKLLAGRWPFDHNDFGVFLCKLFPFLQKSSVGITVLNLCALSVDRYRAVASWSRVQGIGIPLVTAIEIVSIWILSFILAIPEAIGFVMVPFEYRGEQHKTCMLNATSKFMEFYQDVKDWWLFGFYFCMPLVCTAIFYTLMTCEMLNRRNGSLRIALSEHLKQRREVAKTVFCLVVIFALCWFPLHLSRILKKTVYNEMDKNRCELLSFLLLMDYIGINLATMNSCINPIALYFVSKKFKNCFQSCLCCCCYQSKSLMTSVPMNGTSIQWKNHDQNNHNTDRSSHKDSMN
The experiment is classed as cell membranes, Membrane. The following applies: cho-k1.

For experiment [3], the target named is T2, Muscarinic acetylcholine receptor M4 (Homo sapiens, UniProt P08173). Also: in other assays of this panel Not Active means under 50% inhibition at 10 µM.
T2 sequence (P08173 whole entry): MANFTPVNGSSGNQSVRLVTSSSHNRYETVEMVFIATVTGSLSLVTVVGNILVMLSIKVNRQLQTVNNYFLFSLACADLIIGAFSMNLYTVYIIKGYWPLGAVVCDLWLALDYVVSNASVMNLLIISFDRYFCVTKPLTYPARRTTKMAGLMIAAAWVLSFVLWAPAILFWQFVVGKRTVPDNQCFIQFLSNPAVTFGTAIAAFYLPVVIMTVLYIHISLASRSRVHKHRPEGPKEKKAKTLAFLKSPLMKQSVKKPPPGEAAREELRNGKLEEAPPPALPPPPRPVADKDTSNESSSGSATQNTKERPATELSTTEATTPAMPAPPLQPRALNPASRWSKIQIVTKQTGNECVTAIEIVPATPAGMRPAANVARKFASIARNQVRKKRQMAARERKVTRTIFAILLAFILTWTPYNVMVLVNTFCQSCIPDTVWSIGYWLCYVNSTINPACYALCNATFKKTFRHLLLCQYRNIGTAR
The format is cell membranes, CHO-K1, Membrane. The following applies: cho-k1.

The target in another experiment is Nitric oxide synthase 1 (Rattus norvegicus, UniProt P29476). The experiment is classed as tissue-based, Cerebellum. Also: in other assays of this panel Not Active means under 50% inhibition at 10 µM.
In experiment [4] the target is 5-hydroxytryptamine receptor 1B (Rattus norvegicus, UniProt P28564). The experiment is classed as cell membranes, Wistar, Cerebral cortex, Membrane. Also: in other assays of this panel Not Active means under 50% inhibition at 10 µM.
Sequence of 5-hydroxytryptamine receptor 1B (P28564 whole entry): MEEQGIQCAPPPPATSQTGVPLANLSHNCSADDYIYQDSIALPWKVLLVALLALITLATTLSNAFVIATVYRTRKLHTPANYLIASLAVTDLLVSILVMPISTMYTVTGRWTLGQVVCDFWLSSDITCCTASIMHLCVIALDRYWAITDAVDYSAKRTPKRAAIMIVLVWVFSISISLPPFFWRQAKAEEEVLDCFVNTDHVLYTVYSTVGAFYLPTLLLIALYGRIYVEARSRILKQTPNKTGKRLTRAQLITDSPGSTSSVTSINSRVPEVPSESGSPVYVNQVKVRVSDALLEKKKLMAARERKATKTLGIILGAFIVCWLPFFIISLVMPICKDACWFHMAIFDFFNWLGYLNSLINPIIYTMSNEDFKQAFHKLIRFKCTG

Sequence of Nitric oxide synthase 1 (P29476 whole entry): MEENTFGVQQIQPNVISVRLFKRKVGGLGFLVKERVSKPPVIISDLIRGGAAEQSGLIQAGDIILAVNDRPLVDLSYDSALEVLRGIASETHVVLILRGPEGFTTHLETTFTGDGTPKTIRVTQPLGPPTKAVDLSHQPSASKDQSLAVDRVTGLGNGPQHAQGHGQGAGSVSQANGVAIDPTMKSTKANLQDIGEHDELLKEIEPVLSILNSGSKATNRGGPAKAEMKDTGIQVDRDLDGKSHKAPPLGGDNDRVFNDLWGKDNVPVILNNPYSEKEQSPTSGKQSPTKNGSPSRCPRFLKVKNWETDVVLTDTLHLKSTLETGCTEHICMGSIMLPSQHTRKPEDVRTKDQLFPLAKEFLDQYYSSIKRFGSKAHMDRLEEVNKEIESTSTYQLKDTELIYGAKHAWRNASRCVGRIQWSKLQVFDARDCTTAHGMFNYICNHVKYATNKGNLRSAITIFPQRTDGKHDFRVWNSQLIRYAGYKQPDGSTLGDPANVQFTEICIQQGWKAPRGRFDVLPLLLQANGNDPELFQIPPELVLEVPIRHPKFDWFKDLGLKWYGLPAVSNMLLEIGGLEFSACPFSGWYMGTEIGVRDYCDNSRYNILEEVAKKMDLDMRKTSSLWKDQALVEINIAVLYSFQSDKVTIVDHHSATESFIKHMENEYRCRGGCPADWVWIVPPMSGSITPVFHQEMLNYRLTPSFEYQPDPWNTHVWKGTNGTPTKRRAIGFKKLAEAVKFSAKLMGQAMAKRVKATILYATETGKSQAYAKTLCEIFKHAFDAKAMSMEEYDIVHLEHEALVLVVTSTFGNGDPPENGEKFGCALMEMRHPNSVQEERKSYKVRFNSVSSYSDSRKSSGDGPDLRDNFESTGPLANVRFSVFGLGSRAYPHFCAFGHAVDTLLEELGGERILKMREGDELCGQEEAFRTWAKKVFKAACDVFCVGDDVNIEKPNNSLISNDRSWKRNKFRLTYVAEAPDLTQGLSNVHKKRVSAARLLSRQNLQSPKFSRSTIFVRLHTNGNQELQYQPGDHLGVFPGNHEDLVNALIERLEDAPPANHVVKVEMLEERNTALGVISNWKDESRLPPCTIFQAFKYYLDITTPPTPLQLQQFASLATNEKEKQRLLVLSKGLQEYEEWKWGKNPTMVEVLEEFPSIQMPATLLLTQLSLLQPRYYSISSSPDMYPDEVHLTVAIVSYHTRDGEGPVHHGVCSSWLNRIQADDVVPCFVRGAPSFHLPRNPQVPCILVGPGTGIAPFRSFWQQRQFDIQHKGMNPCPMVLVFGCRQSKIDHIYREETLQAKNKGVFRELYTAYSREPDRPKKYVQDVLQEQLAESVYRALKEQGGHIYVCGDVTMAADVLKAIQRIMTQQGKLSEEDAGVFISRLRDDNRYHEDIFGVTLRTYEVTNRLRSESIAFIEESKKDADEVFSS

`C#C[C@]1(OC(C)=O)CC[C@H]2[C@@H]3CCC4=C[C@@H](OC(C)=O)CC[C@@H]4[C@H]3CC[C@@]21C` [ETHYNODIOL DIACETATE]: the IC50 result (in experiment [1]; in experiment [2]; against Endothelin-1 receptor; in experiment [3]; against Nitric oxide synthase 1; in experiment [4]) was “Not Active” in each case. For the same molecule, the Ki result in experiment [1] and in experiment [2] was “Not Active” in each case.
In the case of `COc1cc([C@@H]2c3cc4c(cc3[C@@H](O[C@@H]3O[C@@H]5CO[C@@H](C)O[C@H]5[C@H](O)[C@H]3O)[C@H]3COC(=O)[C@H]23)OCO4)cc(OC)c1O` [ETOPOSIDE], the IC50 result (in experiment [1]; in experiment [2]; against Endothelin-1 receptor; in experiment [3]; on Nitric oxide synthase 1; in experiment [4]) was “Not Active” throughout. Also, the Ki result in experiment [1] and in experiment [2] was “Not Active” throughout.
Regarding `C=CCc1ccc(O)c(OC)c1` [EUGENOL], the IC50 entry (in experiment [1]; in experiment [2]; against Endothelin-1 receptor; in experiment [3]; against Nitric oxide synthase 1; in experiment [4]) was “Not Active” each time. Further, the Ki entry in experiment [1] and in experiment [2] was “Not Active” each time.
Consider `CC(C(=O)O)c1cccc(Oc2ccccc2)c1` (stereo not drawn) [FENOPROFEN], for which the IC50 result (in experiment [1]; in experiment [2]; against Endothelin-1 receptor; in experiment [3]; against Nitric oxide synthase 1; in experiment [4]) was “Not Active” each time. Also, the Ki entry in experiment [1] and in experiment [2] was “Not Active” throughout.
In the case of `CC(C)(C)NC(=O)[C@H]1CC[C@H]2[C@@H]3CC[C@H]4NC(=O)C=C[C@]4(C)[C@H]3CC[C@]12C` [FINASTERIDE], the IC50 entry (in experiment [1]; in experiment [2]; on Endothelin-1 receptor; in experiment [3]; at Nitric oxide synthase 1; in experiment [4]) was “Not Active” throughout. In addition, the Ki result in experiment [1] and in experiment [2] was “Not Active” throughout.
For the molecule `COc1ccc2c3c1O[C@H]1C[C@@H](O)C=C[C@@]31CCN(C)C2` [GALANTAMINE], the IC50 entry (in experiment [1]; in experiment [2]; at Endothelin-1 receptor; in experiment [3]; against Nitric oxide synthase 1; in experiment [4]) was “Not Active” each time. In addition, the Ki entry in experiment [1] and in experiment [2] was “Not Active” each time.
With `Nc1ccn([C@@H]2O[C@H](CO)[C@@H](O)C2(F)F)c(=O)n1` [GEMCITABINE], the IC50 result (in experiment [1]; in experiment [2]; against Endothelin-1 receptor; in experiment [3]; on Nitric oxide synthase 1; in experiment [4]) was “Not Active” throughout. For the same molecule, the Ki result in experiment [1] and in experiment [2] was “Not Active” each time.
With `CC(C)=CCC/C(C)=C/CO` [GERANIOL], the IC50 result (in experiment [1]; in experiment [2]; against Endothelin-1 receptor; in experiment [3]; on Nitric oxide synthase 1; in experiment [4]) was “Not Active” throughout. Moreover, the Ki entry in experiment [1] and in experiment [2] was “Not Active” throughout.
In the case of `N=C(N)NC(=O)Cc1c(Cl)cccc1Cl` [GUANFACINE], the IC50 entry (in experiment [1]; in experiment [2]; at Endothelin-1 receptor; in experiment [3]; against Nitric oxide synthase 1; in experiment [4]) was “Not Active” in each case. In addition, the Ki entry in experiment [1] and in experiment [2] was “Not Active” in each case.
Consider `Oc1c(Cl)cc(Cl)c(Cl)c1Cc1c(O)c(Cl)cc(Cl)c1Cl` [HEXACHLOROPHENE], for which the IC50 (commonly the point on the concentration scale where inhibition reaches its midpoint) in experiment [1] (read-out: IC50) is 6.13 µM; in experiment [2], “Not Active”; at Endothelin-1 receptor, “Not Active”; in experiment [3] it was “Not Active”; on Nitric oxide synthase 1, “Not Active”; in experiment [4], “Not Active”. Moreover, the Ki result in experiment [2] was “Not Active”.
Take `NNc1nncc2ccccc12` [HYDRALAZINE]: the IC50 entry (in experiment [1]; in experiment [2]; on Endothelin-1 receptor; in experiment [3]; against Nitric oxide synthase 1; in experiment [4]) was “Not Active” in each case. Further, the Ki result in experiment [1] and in experiment [2] was “Not Active” in each case.
For the molecule `CC(=O)[C@@]1(O)CC[C@H]2[C@@H]3CCC4=CC(=O)CC[C@]4(C)[C@H]3CC[C@@]21C` [HYDROXYPROGESTERONE], the IC50 result (in experiment [1]; in experiment [2]; against Endothelin-1 receptor; in experiment [3]; against Nitric oxide synthase 1; in experiment [4]) was “Not Active” in each case. In addition, the Ki result in experiment [1] and in experiment [2] was “Not Active” throughout.
For the molecule `COC1=C(OC)C(=O)C(CCCCCCCCCCO)=C(C)C1=O` [IDEBENONE], the IC50 entry (in experiment [1]; in experiment [2]; at Endothelin-1 receptor; in experiment [3]; against Nitric oxide synthase 1; in experiment [4]) was “Not Active” in each case. Moreover, the Ki result in experiment [1] and in experiment [2] was “Not Active” in each case.
Regarding `CC(C)NNC(=O)c1ccncc1` [IPRONIAZID], the IC50 result (in experiment [1]; in experiment [2]; against Endothelin-1 receptor; in experiment [3]; against Nitric oxide synthase 1; in experiment [4]) was “Not Active” each time. The Ki result in experiment [1] and in experiment [2] was “Not Active” throughout.
As for `Cc1c(OCC(F)(F)F)ccnc1C[S+]([O-])c1nc2ccccc2[nH]1` (stereo not drawn) [LANSOPRAZOLE], the half-maximal inhibitory concentration (IC50) entry (in experiment [1]; in experiment [2]; against Endothelin-1 receptor; in experiment [3]; at Nitric oxide synthase 1; in experiment [4]) was “Not Active” each time. The Ki entry in experiment [1] and in experiment [2] was “Not Active” throughout.
Consider `O=c1cc(N2CCOCC2)oc2c(-c3ccccc3)cccc12` [LY-294002], for which the IC50 result (in experiment [1]; in experiment [2]; on Endothelin-1 receptor; in experiment [3]; at Nitric oxide synthase 1; in experiment [4]) was “Not Active” each time. The Ki result in experiment [1] and in experiment [2] was “Not Active” each time.
In the case of `COc1ccc2[nH]cc(CCNC(C)=O)c2c1` [MELATONIN], the concentration for half-maximal inhibition (IC50) result (in experiment [1]; in experiment [2]; against Endothelin-1 receptor; in experiment [3]; against Nitric oxide synthase 1; in experiment [4]) was “Not Active” throughout. The Ki result in experiment [1] and in experiment [2] was “Not Active” throughout.
For the molecule `NC(=O)C[S+]([O-])C(c1ccccc1)c1ccccc1` (stereo not drawn) [MODAFINIL], the IC50 entry (in experiment [1]; in experiment [2]; against Endothelin-1 receptor; in experiment [3]; on Nitric oxide synthase 1; in experiment [4]) was “Not Active” in each case. The Ki result in experiment [1] and in experiment [2] was “Not Active” throughout.
